ChEMBL document CHEMBL2176943, “Discovery of inhibitors to block interactions of HIV-1 integrase with human LEDGF/p75 via structure-based virtual screening and bioassays” (J Med Chem, 2012)
The source made the active and inactive calls. No cut-off for these calls is given here.

How the values were obtained:
[1] = target: Human immunodeficiency virus type 1 integrase (Human immunodeficiency virus 1, UniProt Q7ZJM1); experiment: Inhibition of HIV1 His6-tagged integrase-human GST tagged LEDGF/p75 (373-442 residues) interaction after 30 mins by AlphaScreen assay
[2] = target: Human immunodeficiency virus type 1 integrase (Human immunodeficiency virus 1) (UniProt Q7ZJM1); experiment: Inhibition of nuclear translocation of HIV1 EGFP-labeled integrase expressed in human 293T cells at 86.73 uM after 24 hrs by microscopic analysis; assay type: cell-based
[3] = Cytotoxicity against human C8166 cells after 3 days by MTT assay; assay type: cell-based
[4] = Therapeutic index, ratio of CC50 for human C8166 cells to EC50 for HIV-1 3B infected in C8166 cells; assay type: cell-based; details: read-out: Ratio CC50/EC50
[5] = system: Human immunodeficiency virus 1; experiment: Antiviral activity against HIV-1 3B infected in C8166 cells assessed as virus-induced cytopathic effect measuring […] formation after 3 days by microscopy; assay type: functional, organism-based; details: Human immunodeficiency virus 1, 3B, C8166, 72 h
[6] = target: Human immunodeficiency virus type 1 integrase (Human immunodeficiency virus 1) (UniProt Q7ZJM1); experiment: Inhibition of nuclear translocation of HIV1 EGFP-labeled integrase expressed in human 293T cells at 36 uM after 24 hrs by microscopic analysis; assay type: cell-based
[7] = target: Human immunodeficiency virus type 1 integrase (Human immunodeficiency virus 1) (UniProt Q7ZJM1); experiment: Inhibition of nuclear translocation of HIV1 EGFP-labeled integrase expressed in human 293T cells at 83.83 uM after 24 hrs by microscopic analysis; assay type: cell-based
[8] = target: Human immunodeficiency virus type 1 integrase (Human immunodeficiency virus 1) (UniProt Q7ZJM1); experiment: Inhibition of nuclear translocation of HIV1 EGFP-labeled integrase expressed in human 293T cells at 36.40 uM after 24 hrs by microscopic analysis; assay type: cell-based

Compound | IC50 [1] [nM] | also measured
O=C(/C=C/c1cccc(O)c1O)c1ccc(O)cc1O [2,3,2',4'-TETRAHYDROXYCHALCONE] | 1700 | –
Cc1nc2ccccc2c(-c2cc(F)c3c(c2C)CCCO3)c1[C@H](OC(C)(C)C)C(=O)O | 19 | –
CC1(C)CC[C@]2(C(=O)O)CC[C@]3(C)C(=CC[C@@H]4[C@@]5(C)CC[C@H](OC(=O)C(=O)O)C(C)(C)[C@@H]5CC[C@]43C)[C@@H]2C1 | 9940 | –
O=C(/C=C/c1ccccc1O)c1ccc(O)c(O)c1 | 3670 | –
O=C(/C=C/c1ccccc1O)c1c(O)cc(O)cc1O | 6210 | –
COc1cc(CC(NC(=O)CCCC[C@]23CCC(C)(C)C[C@H]2C2=CC[C@@H]4[C@@]5(C)CC[C@H](O)C(C)(C)[C@@H]5CC[C@@]4(C)[C@]2(C)CC3)C(=O)O)cc(OC)c1 (mixture of isomers) | 1260 | –
CC1(C)CC[C@]2(C(=O)O)CC[C@]3(C)C(=CC[C@@H]4[C@@]5(C)CC[C@H](OCc6cccc(C(=O)O)c6)C(C)(C)[C@@H]5CC[C@]43C)[C@@H]2C1 | 1140 | –
O=C(/C=C/c1cc(F)cc(F)c1)c1ccc(O)cc1O | 1750 | –
O=C(NCc1cccc([N+](=O)[O-])c1)c1ccc(OCc2ccccc2)cc1O | 3840 | –
O=C(/C=C/c1ccc(O)c(O)c1)O[C@H](Cc1ccc(O)c(O)c1)C(=O)O [ROSMARINIC ACID] | 550 | –
O=C(/C=C/c1cccc(O)c1O)c1c(O)cc(O)cc1O | 260 | inhibition [2]: Active; CC50 at 72 h [3]: 111000 nM; selectivity ratio [4]: 3.76; EC50 [5]: 29600 nM
CC1(C)CC[C@]2(C(=O)O)CC[C@]3(C)C(=CC[C@@H]4[C@@]5(C)CC[C@H](OCc6ccccc6)C(C)(C)[C@@H]5CC[C@]43C)[C@@H]2C1 | 700 | –
Cc1cn([C@H]2C[C@H](N=[N+]=[N-])[C@@H](CO)O2)c(=O)[nH]c1=O [ZIDOVUDINE] | – | selectivity ratio [4]: 473000; EC50 [5]: 8.7 nM
COc1ccccc1CC(NC(=O)CCCC[C@]12CCC(C)(C)C[C@H]1C1=CC[C@@H]3[C@@]4(C)CC[C@H](O)C(C)(C)[C@@H]4CC[C@@]3(C)[C@]1(C)CC2)C(=O)O (mixture of isomers) | 4560 | –
CC1(C)CC[C@]2(CCCCC(=O)NC(Cc3ccccc3Cl)C(=O)O)CC[C@]3(C)C(=CC[C@@H]4[C@@]5(C)CC[C@H](O)C(C)(C)[C@@H]5CC[C@]43C)[C@@H]2C1 (mixture of isomers) | 650 | inhibition [6]: Active; CC50 at 72 h [3]: 77500 nM; selectivity ratio [4]: 2.12; EC50 [5]: 36600 nM
COc1cccc(CC(NC(=O)CCCC[C@]23CCC(C)(C)C[C@H]2C2=CC[C@@H]4[C@@]5(C)CC[C@H](O)C(C)(C)[C@@H]5CC[C@@]4(C)[C@]2(C)CC3)C(=O)O)c1OC (mixture of isomers) | 3220 | –
CCOc1cc(/C=C2\SC(=O)N(CC(=O)c3ccccc3)C2=O)c(Br)cc1OCc1ccc(C(=O)O)cc1 | – | inhibition [7]: Active
O=C(/C=C/c1ccccc1Cl)c1ccc(O)cc1O | 320 | inhibition [8]: Active; CC50 at 72 h [3]: 8830 nM; selectivity ratio [4]: 4.88; EC50 [5]: 1810 nM
O=C(/C=C/c1cc(O)ccc1O)c1ccc(O)cc1O | 3780 | –
CC1(C)CC[C@]2(C(=O)O)CC[C@]3(C)C(=CC[C@@H]4[C@@]5(C)CC[C@H](OC(=O)CC(C)(C)C(=O)O)C(C)(C)[C@@H]5CC[C@]43C)[C@@H]2C1 | 5510 | –
O=C(/C=C/c1ccccc1O)c1cccc(O)c1O | 1610 | –
